The values that follow come from patent EP4818168A1, “FUSED RING COMPOUND, PHARMACEUTICAL COMPOSITION THEREOF AND USE THEREOF” (priority 2023, dated 2025).

The target of one test is T1, AURKA (Homo sapiens, UniProt O14965).
T1 construct: endogenous in cells; host or cells: Jurkat cells
T1 sequence (O14965 1-403): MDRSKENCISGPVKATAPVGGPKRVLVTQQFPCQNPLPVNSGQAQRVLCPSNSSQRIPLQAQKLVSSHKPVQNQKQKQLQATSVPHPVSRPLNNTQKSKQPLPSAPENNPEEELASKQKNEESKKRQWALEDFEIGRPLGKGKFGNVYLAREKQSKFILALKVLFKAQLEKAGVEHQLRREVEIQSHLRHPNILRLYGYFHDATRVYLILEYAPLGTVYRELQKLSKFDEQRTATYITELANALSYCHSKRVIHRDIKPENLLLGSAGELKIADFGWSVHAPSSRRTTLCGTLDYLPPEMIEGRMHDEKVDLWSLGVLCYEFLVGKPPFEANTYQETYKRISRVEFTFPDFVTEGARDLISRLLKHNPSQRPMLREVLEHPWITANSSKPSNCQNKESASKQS
Type of test: cell-based. Conditions: Jurkat cells, 24 h, Table 2. A digest of the protocol: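 Jurkat cells seeded at 1×10^6 cells/500 µL and treated with compound; lysates run on SDS-PAGE, blotted to nitrocellulose and probed overnight at 4°C for AURKA. Chemiluminescent or fluorescent band intensity fitted to a curve to give DC50 for protein degradation.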

For another test, the system named is H82 cells. Kind of test: cells. The format is cell-based. Conditions: Homo sapiens, NCI-H82; H82 cells, 4000 cells/well, CellTiter-Glo; read-out: IC50 in H82 Cells. The gist of the method:
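H82 cells in RPMI1640 + 10% FBS exposed to compound (0.1% DMSO final) for 6 days at 37 °C, 5% CO2. Viability read by CellTiter-Glo ATP luminescence, normalised to DMSO and medium controls; IC50 from nonlinear regression of the dose–survival curve.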

What is called pIC50 is the negative decadic logarithm of the IC50, by convention in mol/L.

pIC50: −log10 of the molar value.

On to `O=C1CCN(c2ccc(N3CCC(C(=O)N4CCN(c5ccc(Nc6ncc7c(n6)-c6ccc(Cl)cc6C(c6c(F)cccc6F)=NC7)cc5)CC4)CC3)nc2)C(=O)N1` [Compound A229], for which, on AURKA, the “Percentage of AURKA Degradation Induced by 100 nM Compound in Jurkat Cells” value (“Percentage … by 100 nM Compound in Jurkat Cells” below) is “+++ (Degradation > 70%)” and the “Percentage of AURKA Degradation Induced by 1 µM Compound in Jurkat Cells” value (“Percentage … by 1 µM Compound in Jurkat Cells” for short) was “+++ (Degradation > 70%)”. For the same molecule, in the test on H82 cells, the pIC50 was above 6.00.
On to `O=C1CCN(c2ccc(N3CCC(CN4CCN(C56CC(Nc7ncc8c(n7)-c7ccc(Cl)cc7C(c7c(F)cccc7F)=NC8)(C5)C6)CC4)C3)nc2)C(=O)N1` (stereo not drawn) [Compound A231], for which, on AURKA, the “Percentage … by 100 nM Compound in Jurkat Cells” value is given as “+++ (Degradation > 70%)” and the “Percentage … by 1 µM Compound in Jurkat Cells” value is recorded as “+++ (Degradation > 70%)”. Also, the pIC50 in the test on H82 cells was above 6.00.
Turning to `O=C1CCN(c2ccc(N3CCC(N4CCN(c5ccc(Nc6ncc7c(n6)-c6ccc(Cl)cc6C(c6c(F)cccc6F)=NC7)cc5)C5(COC5)C4)CC3)nc2)C(=O)N1` [Compound A233], on AURKA, the “Percentage … by 100 nM Compound in Jurkat Cells” value is on record as “++ (30% < Degradation ≤ 70%)” and the “Percentage … by 1 µM Compound in Jurkat Cells” value is reported as “+++ (Degradation > 70%)”. In the test on H82 cells, the pIC50 was above 6.00.
For `O=C1CCN(c2cccc(N3CC(C(=O)N4CCOc5ccc(Nc6ncc7c(n6)-c6ccc(Cl)cc6C(c6c(F)cccc6F)=NC7)cc5C4)C3)c2)C(=O)N1` [Compound A235], on AURKA, the “Percentage … by 100 nM Compound in Jurkat Cells” value is listed as “++ (30% < Degradation ≤ 70%)” and the “Percentage … by 1 µM Compound in Jurkat Cells” value was “+ (Degradation ≤ 30%)”. Moreover, in the test on H82 cells, the pIC50 was above 6.00.
Regarding `CN1CCN(CC2CN(c3cccc(N4CCC(=O)NC4=O)c3)C2)Cc2cc(Nc3ncc4c(n3)-c3ccc(Cl)cc3C(c3c(F)cccc3F)=NC4)ccc21` [Compound A236], at AURKA, the “Percentage … by 100 nM Compound in Jurkat Cells” value is reported as “+++ (Degradation > 70%)” and the “Percentage … by 1 µM Compound in Jurkat Cells” value was “++ (30% < Degradation ≤ 70%)”. Also, the pIC50 in the test with H82 cells is above 6.00.
Regarding `O=C1CCN(c2cccc(N3CC(CN4CCOc5ccc(Nc6ncc7c(n6)-c6ccc(Cl)cc6C(c6c(F)cccc6F)=NC7)cc5C4)C3)c2)C(=O)N1` [Compound A237], at AURKA, the “Percentage … by 100 nM Compound in Jurkat Cells” value is recorded as “+++ (Degradation > 70%)” and the “Percentage … by 1 µM Compound in Jurkat Cells” value is given as “+++ (Degradation > 70%)”. In the test with H82 cells, the pIC50 is above 6.00.
Take `CN1CCN(CC2CCN(c3cccc(N4CCC(=O)NC4=O)c3)CC2)Cc2cc(Nc3ncc4c(n3)-c3ccc(Cl)cc3C(c3c(F)cccc3F)=NC4)ccc21` [Compound A239]: at AURKA, the “Percentage … by 100 nM Compound in Jurkat Cells” value was “+++ (Degradation > 70%)” and the “Percentage … by 1 µM Compound in Jurkat Cells” value is listed as “+++ (Degradation > 70%)”. In addition, in the test with H82 cells, the pIC50 was above 6.00.
In the case of `O=C1CCN(c2cccc(N3CCC(CN4CCOc5ccc(Nc6ncc7c(n6)-c6ccc(Cl)cc6C(c6c(F)cccc6F)=NC7)cc5C4)CC3)c2)C(=O)N1` [Compound A240], at AURKA, the “Percentage … by 100 nM Compound in Jurkat Cells” value was “+++ (Degradation > 70%)” and the “Percentage … by 1 µM Compound in Jurkat Cells” value is recorded as “+++ (Degradation > 70%)”. Also, the pIC50 in the test on H82 cells is above 6.00.
Take `O=C1CCN(c2ccc(N3CCN(C(=O)C4CCN(C56CC(Nc7ncc8c(n7)-c7ccc(Cl)cc7C(c7c(F)cccc7F)=NC8)(C5)C6)CC4)CC3)nc2)C(=O)N1` [Compound A243]: on AURKA, the “Percentage … by 100 nM Compound in Jurkat Cells” value is given as “+++ (Degradation > 70%)” and the “Percentage … by 1 µM Compound in Jurkat Cells” value is “+++ (Degradation > 70%)”. Moreover, the pIC50 in the test with H82 cells was above 6.00.
Regarding `Cn1nc(N2CCC(=O)NC2=O)c2cc(F)c(N3CCN(C4CN(c5cccc(Nc6ncc7c(n6)-c6ccc(Cl)cc6C(c6c(F)cccc6F)=NC7)c5)C4)CC3)cc21` [Compound A244], on AURKA, the “Percentage … by 100 nM Compound in Jurkat Cells” value was “++ (30% < Degradation ≤ 70%)” and the “Percentage … by 1 µM Compound in Jurkat Cells” value is listed as “+++ (Degradation > 70%)”. For the same molecule, in the test with H82 cells, the pIC50 is above 6.00.
Take `Cn1nc(N2CCC(=O)NC2=O)c2cc(F)c(N3CCN(CC4CN(c5cccc(Nc6ncc7c(n6)-c6ccc(Cl)cc6C(c6c(F)cccc6F)=NC7)c5)C4)CC3)cc21` [Compound A245]: on AURKA, the “Percentage … by 100 nM Compound in Jurkat Cells” value is listed as “+++ (Degradation > 70%)” and the “Percentage … by 1 µM Compound in Jurkat Cells” value is “+++ (Degradation > 70%)”. The pIC50 in the test with H82 cells was above 6.00.
For `O=C1CCN(c2ccc(N3CCN(CC4CN(c5ccc(Nc6ncc7c(n6)-c6ccc(Cl)cc6C(c6c(F)cccc6F)=NC7)cn5)C4)CC3)nc2)C(=O)N1` [Compound A248], at AURKA, the “Percentage … by 100 nM Compound in Jurkat Cells” value is recorded as “+++ (Degradation > 70%)” and the “Percentage … by 1 µM Compound in Jurkat Cells” value is “+++ (Degradation > 70%)”. In the test with H82 cells, the pIC50 is above 6.00.
For `O=C1CCN(c2ccc(C3CCN(CC4CN(c5ccc(Nc6ncc7c(n6)-c6ccc(Cl)cc6C(c6c(F)cccc6F)=NC7)cc5)C4)CC3)nc2)C(=O)N1` [Compound A249], on AURKA, the “Percentage … by 100 nM Compound in Jurkat Cells” value is recorded as “+++ (Degradation > 70%)” and the “Percentage … by 1 µM Compound in Jurkat Cells” value is given as “+++ (Degradation > 70%)”. Also, the pIC50 in the test on H82 cells was above 6.00.
For the molecule `O=C1CCN(c2ccc(N3CCC(CN4CCN(C56CC(Nc7ncc8c(n7)-c7ccc(Cl)cc7C(c7c(F)cccc7F)=NC8)(C5)C6)C(=O)C4)CC3)nc2)C(=O)N1` [Compound A250], at AURKA, the “Percentage … by 100 nM Compound in Jurkat Cells” value was “+++ (Degradation > 70%)” and the “Percentage … by 1 µM Compound in Jurkat Cells” value was “+++ (Degradation > 70%)”. In addition, in the test on H82 cells, the pIC50 is above 6.00.
Consider `N#CC1CN(C2CCN(c3ccc(N4CCC(=O)NC4=O)cn3)CC2)CCN1c1ccc(Nc2ncc3c(n2)-c2ccc(Cl)cc2C(c2c(F)cccc2F)=NC3)cc1` (stereo not drawn) [Compound A251], for which, at AURKA, the “Percentage … by 100 nM Compound in Jurkat Cells” value was “+++ (Degradation > 70%)” and the “Percentage … by 1 µM Compound in Jurkat Cells” value is given as “+++ (Degradation > 70%)”. In the test with H82 cells, the pIC50 is above 6.00.
As to `O=C1CCN(c2ccc(N3CCN(C4(C5CN(c6ccc(Nc7ncc8c(n7)-c7ccc(Cl)cc7C(c7c(F)cccc7F)=NC8)cc6)C5)CC4)CC3)nc2)C(=O)N1` [Compound A252], on AURKA, the “Percentage … by 100 nM Compound in Jurkat Cells” value is listed as “+++ (Degradation > 70%)” and the “Percentage … by 1 µM Compound in Jurkat Cells” value is given as “+++ (Degradation > 70%)”. The pIC50 in the test on H82 cells was above 6.00.
On to `COc1cccc(F)c1C1=NCc2cnc(Nc3ccc(N4CC(CN5CCN(c6ccc(N7CCC(=O)NC7=O)cn6)CC5)C4)cc3)nc2-c2ccc(Cl)cc21` [Compound A253], for which, at AURKA, the “Percentage … by 100 nM Compound in Jurkat Cells” value is given as “+++ (Degradation > 70%)” and the “Percentage … by 1 µM Compound in Jurkat Cells” value is on record as “+++ (Degradation > 70%)”. Moreover, the pIC50 with H82 cells is above 6.00.
For `O=C1CCN(c2ccc(N3CCC(OC4CN(c5ccc(Nc6ncc7c(n6)-c6ccc(Cl)cc6C(c6c(F)cccc6F)=NC7)cc5)C4)CC3)nc2)C(=O)N1` [Compound A254], on AURKA, the “Percentage … by 100 nM Compound in Jurkat Cells” value is recorded as “+++ (Degradation > 70%)” and the “Percentage … by 1 µM Compound in Jurkat Cells” value is “++ (30% < Degradation ≤ 70%)”. Further, the pIC50 in the test on H82 cells was above 6.00.
On the same counts, the results for `O=C1CCN(c2ccc(N3CCN(C(=O)N4CCN(C56CC(Nc7ncc8c(n7)-c7ccc(Cl)cc7C(c7c(F)cccc7F)=NC8)(C5)C6)CC4)CC3)nc2)C(=O)N1` [Compound A255] are “++ (30% < Degradation ≤ 70%)”, “++ (30% < Degradation ≤ 70%)” and above 6.00.
